Drawing on ChEMBL document CHEMBL3804826, “MALT1 Inhibitors May Potentially Treat Lymphomas and Autoimmune Disorders” (ACS Med Chem Lett, 2016), this text covers IC50 for three compounds.

The target of experiment [1] is T1, Mucosa-associated lymphoid tissue lymphoma translocation protein 1 (Homo sapiens, UniProt Q9UDY8).
T1 sequence (Q9UDY8 whole entry): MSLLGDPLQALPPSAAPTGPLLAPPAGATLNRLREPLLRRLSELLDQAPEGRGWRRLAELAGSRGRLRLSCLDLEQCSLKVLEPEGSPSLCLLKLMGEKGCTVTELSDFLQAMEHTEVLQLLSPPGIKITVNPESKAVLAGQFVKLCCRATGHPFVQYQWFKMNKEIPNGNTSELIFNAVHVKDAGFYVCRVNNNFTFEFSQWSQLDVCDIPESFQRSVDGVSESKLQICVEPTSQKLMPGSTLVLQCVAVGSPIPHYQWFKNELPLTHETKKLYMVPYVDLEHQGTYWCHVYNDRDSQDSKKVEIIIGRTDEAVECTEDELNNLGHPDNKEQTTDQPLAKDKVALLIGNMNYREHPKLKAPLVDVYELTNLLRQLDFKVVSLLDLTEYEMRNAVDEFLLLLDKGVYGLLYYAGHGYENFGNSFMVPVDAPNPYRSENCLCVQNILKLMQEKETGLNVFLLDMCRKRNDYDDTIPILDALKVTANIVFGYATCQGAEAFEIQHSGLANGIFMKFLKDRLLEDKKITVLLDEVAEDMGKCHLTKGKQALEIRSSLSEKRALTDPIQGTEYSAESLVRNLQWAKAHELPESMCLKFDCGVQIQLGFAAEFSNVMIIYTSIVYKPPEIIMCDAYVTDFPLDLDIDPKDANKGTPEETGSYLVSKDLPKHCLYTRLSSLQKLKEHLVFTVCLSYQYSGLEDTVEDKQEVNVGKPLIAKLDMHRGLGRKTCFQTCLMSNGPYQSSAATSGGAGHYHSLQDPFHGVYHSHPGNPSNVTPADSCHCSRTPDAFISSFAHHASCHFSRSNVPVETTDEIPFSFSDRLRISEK
Kind of experiment: Inhibition of MALT1 (unknown origin) expressed in human Jurkat Clone K22 29Q_H23 cells assessed as IL2 production preincubated for 30 mins followed by PMA stimulation for 5.5 hrs by luciferase reporter gene assay. It counts as cell-based.

Experiment [2] concerns the target Baculoviral IAP repeat-containing protein 3/Mucosa-associated lymphoid tissue lymphoma translocation protein 1 (Homo sapiens, UniProt Q13489+Q9UDY8). Kind of experiment: Inhibition of cIAP2-MALT1 (unknown origin) expressed in HEK293 cells assessed as inhibition of NFkappaB signaling after 24 hrs by luciferase reporter gene assay. In kind it is cell-based.

Chain of Baculoviral IAP repeat-containing protein 3/Mucosa-associated lymphoid tissue lymphoma translocation protein 1 (Q13489 whole entry, one chain of several): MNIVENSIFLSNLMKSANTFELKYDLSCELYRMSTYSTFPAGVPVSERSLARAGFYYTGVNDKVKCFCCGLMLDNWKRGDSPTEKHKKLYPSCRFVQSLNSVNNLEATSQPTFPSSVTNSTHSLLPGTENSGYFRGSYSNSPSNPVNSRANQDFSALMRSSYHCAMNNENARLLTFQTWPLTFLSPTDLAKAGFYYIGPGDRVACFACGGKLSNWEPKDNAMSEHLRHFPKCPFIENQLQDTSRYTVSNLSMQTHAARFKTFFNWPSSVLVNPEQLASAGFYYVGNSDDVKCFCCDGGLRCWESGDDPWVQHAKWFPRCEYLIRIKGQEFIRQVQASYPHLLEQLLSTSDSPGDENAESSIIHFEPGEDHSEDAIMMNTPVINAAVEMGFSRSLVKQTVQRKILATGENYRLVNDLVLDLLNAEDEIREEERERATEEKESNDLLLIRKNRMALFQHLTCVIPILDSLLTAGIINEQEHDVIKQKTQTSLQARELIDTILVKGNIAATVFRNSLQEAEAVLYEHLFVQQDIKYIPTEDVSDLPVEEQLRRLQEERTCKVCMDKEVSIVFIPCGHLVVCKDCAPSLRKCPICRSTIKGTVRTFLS

Turning to `CC(C)c1c(NC(=O)Nc2cnc(N3CCCS3(=O)=O)c(C(F)(F)F)c2)cnc2cc(Cl)nn12`, the IC50 in experiment [1] worked out at 248 nM; in experiment [2], 54 nM.

In the case of `CO[C@@H](C)c1c(NC(=O)Nc2cncc(C(F)(F)F)c2)cnc2cc(C)nn12`, the figures for the IC50 in experiment [1] and in experiment [2] were 52 nM and 132 nM, respectively.

For `COCC(c1c(NC(=O)Nc2cnc(-n3nccn3)c(Cl)c2)cnc2cc(Cl)nn12)C1CC1` (stereo unspecified), the IC50 in experiment [1] came out at 28 nM; in experiment [2] it was 84 nM.
